According to patent US4241053A, “Novel nitrosourea compounds and process for preparing the same” (Tanabe Seiyaku Co., Ltd., priority 1978, dated 1980):

What was measured:
lymphoid leukemia L-1210 = conditions: tumor cells implanted intraperitoneally; cited from earlier work
[1] = Preventive effect against the growth of Ehrlich ascites tumor (Method A); format: in vivo, mice (female ICR); conditions: mouse, in vivo, ip; maximum dose with 100% inhibition of Ehrlich ascites tumor without causing death; unit from dose column; read-out: MTD (Maximum Tolerated Dose)
Description: (§1) (A) Preventive effect against the growth of Ehrlich ascites tumor:
(§2) 10^6 tumor cells of Ehrlich ascites carcinoma were inoculated intraperitoneally into a group of five femal mice (ICR mice, body weight: 19-23 g). A test compound was dissolved in a physiological saline solution [In the case where CCNU was employed as the test compound, said compound was suspended in a physiological saline solution containing 0.1% NIKKOL HCO-60 (trademark; a surface active agent manufactured by Nikko Chemicals Co. Ltd.)] and administered intraperioneally to the mice. The administration of the test compound was begun 24 hours after the inoculation of the tumor cells and performed once a day for 5 days. The volume of ascites in the treated mice were measured after 7 days of the experiment.
(§3) ^a T = the average volume of ascites in the treated mice
(§4) C = the average volume of ascites in the untreated mice (control group of
(§5) 100% inhibition for the growth of Ehrlich ascites tumor in mice without
(§6) causing the death of said mice)
(§7) 100% inhibition for the growth of said ascites tumor)
(§8) ^e Therapeutic index = MTD/MED
(§9) *the number of mice died/the number of mice used

[2] = system: Ehrlich ascites carcinoma; assay: as above; format: in vivo, mice (female ICR); conditions: for therapeutic index (M.T.D./M.E.D.) relative to that of GANU: Ehrlich ascites tumor, greater than that of GANU; for inhibition in vivo at 0.78 mg/kg: 0.78 mg/kg/day i.p.; for inhibition in vivo at 1.56 mg/kg: 1.56 mg/kg/day i.p.; for inhibition in vivo at 3.12 mg/kg: 3.12 mg/kg/day i.p.; for inhibition in vivo at 12.5 mg/kg: 12.5 mg/kg/day i.p.; for inhibition in vivo at 50 mg/kg: 50 mg/kg/day i.p.; for minimal effective dose: minimum dose with 100% inhibition of ascites tumor, unit from dose column, read-out: MED (Minimum Effective Dose); for inhibition in vivo at 0.09 mg/kg: 0.09 mg/kg/day i.p.; for inhibition in vivo at 0.19 mg/kg: 0.19 mg/kg/day i.p.; for inhibition in vivo at 0.39 mg/kg: 0.39 mg/kg/day i.p.; for inhibition in vivo at 6.25 mg/kg: 6.25 mg/kg/day i.p.; for inhibition in vivo at 25 mg/kg: 25 mg/kg/day i.p.
Description: as §1, §2, §3, §4, §5, §6, §7, §8, §9

Leukemia L-1210 = assay: Effect on the life span of mice implanted with leukemic cells of L-1210 (Method B); format: in vivo, mice (male BDF1); conditions: for ILS at 6.25 mg/kg / responders at 6.25 mg/kg: 6.25 mg/kg/day i.p.; for ILS at 25 mg/kg / responders at 25 mg/kg: 25 mg/kg/day i.p.; for ILS at 50 mg/kg / responders at 50 mg/kg: 50 mg/kg/day i.p.; for ILS at 12.5 mg/kg / responders at 12.5 mg/kg: 12.5 mg/kg/day i.p.; for ILS at 1.56 mg/kg / responders at 1.56 mg/kg: 1.56 mg/kg/day i.p.; for responders at 1.56 mg/kg: read-out: 60-day survivors (mice survived for 60 days/mice used)
Description: (B) Effect on the life span of mice implanted with leukemic cells of L-1210:
10^5 leukemic cells of L-1210 were inoculated intraperitoneally into a group of four or six male mice (BDF1 mice, body weight: 19-23 g). A test compound was dissolved in a physiological saline solution and administered intraperitoneally to the mice. The administration of the test compound was begun 24 hours after the inoculation of the leukemic cells and performed once a day for 5 days. The survival days of the treated mice were observed.
^a T = the mean survival days of the treated mice
C = the mean survival days of the untreated mice (control group of mice)
^b ILS(Increase in Life Span) =-
^c 60day survivors = the number of mice survived for 60 days/the

[3] = Mus musculus, Ehrlich, ip, 168 h, once a day for 5 days, read-out: Inhibition ratio
[4] = Mus musculus, Ehrlich, ip, 168 h
[5] = Mus musculus, L1210, ip, 120 h, once a day for 5 days, read-out: ILS (Increase in Life Span)
[6] = Mus musculus, L1210, ip, 1440 h, once a day for 5 days, read-out: 60-day survivors (mice survived for 60 days/mice used) (converted)
[7] = 100 mg/kg/day i.p., once a day for 5 days
[8] = Mus musculus, L1210, ip, 1440 h, once a day for 5 days
[9] = 200 mg/kg/day i.p., once a day for 5 days
[10] = Mus musculus, Ehrlich, ip, 168 h, 100 mg/kg/day i.p., once a day for 5 days, read-out: Inhibition ratio

## O=NN(CCCl)C(=O)NC1O[C@H](CO)[C@@H](O)[C@H](O)[C@@H]1O (stereo partly drawn) [1-(2-chloroethyl)-1-nitroso-3-(D-mannopyranosyl)urea]
Lymphoid leukemia L-1210
  life span of mice implanted with L-1210: increase the life span

## COCC(C)N(C(=O)N(CCCl)N=O)C1O[C@H](CO)[C@@H](O[C@H]2O[C@H](CO)[C@@H](O)[C@H](O)[C@H]2O)[C@H](O)[C@H]1O (stereo partly drawn) [Compound 2, 1-(2-chloroethyl)-1-nitroso-3-(1-methyl-2-methoxy-ethyl)-3-[O-α-D-glucopyranosyl-(1→4)-D-glucopyranosyl]urea]
[1]
  MTD at 168 h: 200 mg/kg/day
[2]; 400 mg/kg/day i.p., once a day for 5 days
  Toxic (number of mice died/number of mice used): 2/5
[2]
  therapeutic index (M.T.D./M.E.D.) relative to that of GANU: 4 times
  Therapeutic index (MTD/MED): 128
[2]; [3]
  inhibition in vivo at 0.78 mg/kg: -8.6%
  inhibition in vivo at 1.56 mg/kg: 100%
  inhibition in vivo at 3.12 mg/kg: 100%
  inhibition in vivo at 12.5 mg/kg: 100%
  inhibition in vivo at 50 mg/kg: 100%
[2]; Mus musculus, Ehrlich, ip, 168 h, 200 mg/kg/day i.p., once a day for 5 days, read-out: Inhibition ratio
  inhibition in vivo at 200 mg/kg: 100%
[2]; [4]
  minimal effective dose: 1.56 mg/kg/day
Leukemia L-1210; [5]
  ILS at 6.25 mg/kg: 85.7%
  ILS at 25 mg/kg: > 604%
  ILS at 50 mg/kg: > 757%
Leukemia L-1210; Mus musculus, L1210, ip, 120 h, 100 mg/kg/day i.p., once a day for 5 days, read-out: ILS (Increase in Life Span)
  ILS at 100 mg/kg: > 757%
Leukemia L-1210; [6]
  responders at 6.25 mg/kg: 0%
  responders at 25 mg/kg: 75%
  responders at 50 mg/kg: 100%
Leukemia L-1210; Mus musculus, L1210, ip, 1440 h, 100 mg/kg/day i.p., once a day for 5 days, read-out: 60-day survivors (mice survived for 60 days/mice used) (converted)
  responders at 100 mg/kg: 100%

## COCCCN(C(=O)N(CCCl)N=O)C1OC[C@H](O)[C@H](O)[C@H]1O (stereo partly drawn) [Compound 4, 1-(2-chloroethyl)-1-nitroso-3-(3-methoxy-n-propyl)-3-(L-arabinopyranosyl)urea]
[1]
  MTD at 168 h: 50 mg/kg/day
[2]; [7]
  Toxic (number of mice died/number of mice used): 2/5
[2]
  therapeutic index (M.T.D./M.E.D.) relative to that of GANU: 4 times
  Therapeutic index (MTD/MED): 128
[2]; [3]
  inhibition in vivo at 0.09 mg/kg: 18.4%
  inhibition in vivo at 0.19 mg/kg: 44.9%
  inhibition in vivo at 0.39 mg/kg: 100%
  inhibition in vivo at 0.78 mg/kg: 100%
  inhibition in vivo at 3.12 mg/kg: 100%
  inhibition in vivo at 12.5 mg/kg: 100%
  inhibition in vivo at 50 mg/kg: 100%
[2]; [4]
  minimal effective dose: 0.39 mg/kg/day
Leukemia L-1210; [5]
  ILS at 6.25 mg/kg: 97.2%
  ILS at 12.5 mg/kg: > 324%
  ILS at 25 mg/kg: > 733%
  ILS at 50 mg/kg: > 733%
Leukemia L-1210; [6]
  responders at 6.25 mg/kg: 0%
  responders at 12.5 mg/kg: 33.3%
  responders at 25 mg/kg: 100%
  responders at 50 mg/kg: 100%

## COCCN(C(=O)N(CCCl)N=O)C1O[C@H](CO)[C@@H](O)[C@H]1O (stereo partly drawn) [Compound 9, 1-(2-chloroethyl)-1-nitroso-3-(2-methoxyethyl)-3-(D-ribofuranosyl)urea]
[1]
  MTD at 168 h: 50 mg/kg/day
[2]; [7]
  Toxic (number of mice died/number of mice used): 3/5
[2]
  Therapeutic index (MTD/MED): 64
[2]; [3]
  inhibition in vivo at 0.19 mg/kg: 20%
  inhibition in vivo at 0.39 mg/kg: 62%
  inhibition in vivo at 0.78 mg/kg: 100%
  inhibition in vivo at 3.12 mg/kg: 100%
  inhibition in vivo at 12.5 mg/kg: 100%
  inhibition in vivo at 50 mg/kg: 100%
[2]; [4]
  minimal effective dose: 0.78 mg/kg/day
Leukemia L-1210; [5]
  ILS at 1.56 mg/kg: 40%
  ILS at 6.25 mg/kg: > 243%
  ILS at 12.5 mg/kg: > 414%
  ILS at 25 mg/kg: > 757%
  ILS at 50 mg/kg: > 757%
Leukemia L-1210; [8]
  responders at 1.56 mg/kg: 0%
Leukemia L-1210; [6]
  responders at 6.25 mg/kg: 25%
  responders at 12.5 mg/kg: 50%
  responders at 25 mg/kg: 100%
  responders at 50 mg/kg: 100%

## COCC(C)N(C(=O)N(CCCl)N=O)C1OC[C@H](O)[C@H](O)[C@H]1O (stereo partly drawn) [Compound 6, 1-(2-chloroethyl)-1-nitroso-3-(1-methyl-2-methoxy-ethyl)-3-(L-arabinopyranosyl)urea]
[1]
  MTD at 168 h: 50 mg/kg/day
[2]; [7]
  Toxic (number of mice died/number of mice used): 5/5
[2]
  Therapeutic index (MTD/MED): 64
[2]; [3]
  inhibition in vivo at 0.09 mg/kg: 15.8%
  inhibition in vivo at 0.19 mg/kg: 63.2%
  inhibition in vivo at 0.39 mg/kg: 92.1%
  inhibition in vivo at 0.78 mg/kg: 100%
  inhibition in vivo at 3.12 mg/kg: 100%
  inhibition in vivo at 12.5 mg/kg: 100%
  inhibition in vivo at 50 mg/kg: 100%
[2]; [4]
  minimal effective dose: 0.78 mg/kg/day
Leukemia L-1210; [5]
  ILS at 1.56 mg/kg: 57.5%
  ILS at 6.25 mg/kg: > 270%
  ILS at 12.5 mg/kg: > 722%
  ILS at 25 mg/kg: > 722%
Leukemia L-1210; [8]
  responders at 1.56 mg/kg: 0%
Leukemia L-1210; [6]
  responders at 12.5 mg/kg: 100%
  responders at 25 mg/kg: 100%
Leukemia L-1210; daily dose 0.45 mg/kg i.p., five consecutive days
  increase in the average life span: about 30%

## COCC(C)N(C(=O)N(CCCl)N=O)C1O[C@H](CO)[C@H](O)[C@H](O)[C@H]1O (stereo partly drawn) [Compound 8, 1-(2-chloroethyl)-1-nitroso-3-(1-methyl-2-methoxy-ethyl)-3-(D-galactopyranosyl)urea]
[1]
  MTD at 168 h: 100 mg/kg/day
[2]; [9]
  Toxic (number of mice died/number of mice used): 5/5
[2]
  Therapeutic index (MTD/MED): 64
[2]; [3]
  inhibition in vivo at 0.39 mg/kg: 18.4%
  inhibition in vivo at 0.78 mg/kg: 65.8%
  inhibition in vivo at 1.56 mg/kg: 100%
  inhibition in vivo at 6.25 mg/kg: 100%
  inhibition in vivo at 25 mg/kg: 100%
[2]; [10]
  inhibition in vivo at 100 mg/kg: 100%
[2]; [4]
  minimal effective dose: 1.56 mg/kg/day
Leukemia L-1210; [5]
  ILS at 12.5 mg/kg: 158%
  ILS at 25 mg/kg: > 496%
  ILS at 50 mg/kg: > 722%
Leukemia L-1210; [6]
  responders at 12.5 mg/kg: 0%
  responders at 25 mg/kg: 50%
  responders at 50 mg/kg: 100%

## COCCCN(C(=O)N(CCCl)N=O)C1O[C@H](CO)[C@@H](O)[C@H](O)[C@H]1O (stereo partly drawn) [Compound 12, 1-(2-chloroethyl)-1-nitroso-3-(3-methoxy-n-propyl)-3-(D-glucopyranosyl)urea]
[1]
  MTD at 168 h: 100 mg/kg/day
[2]; [9]
  Toxic (number of mice died/number of mice used): 5/5
[2]
  Therapeutic index (MTD/MED): 32
[2]; [3]
  inhibition in vivo at 0.39 mg/kg: 10%
  inhibition in vivo at 0.78 mg/kg: 34%
  inhibition in vivo at 1.56 mg/kg: 90%
  inhibition in vivo at 3.12 mg/kg: 100%
  inhibition in vivo at 6.25 mg/kg: 100%
  inhibition in vivo at 25 mg/kg: 100%
[2]; [10]
  inhibition in vivo at 100 mg/kg: 100%
[2]; [4]
  minimal effective dose: 3.12 mg/kg/day
Leukemia L-1210; [5]
  ILS at 25 mg/kg: > 304%
  ILS at 50 mg/kg: > 757%
Leukemia L-1210; [6]
  responders at 12.5 mg/kg: 0%
  responders at 25 mg/kg: 25%
  responders at 50 mg/kg: 100%
